From ChEMBL document CHEMBL1201862, “PubChem BioAssay data set” (2004)
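Grown in 96-well plates, cells were treated for 48 hours with each compound at five concentrations. Insufficient inhibition: endpoint recorded as highest concentration tested. At the GI50, growth is halved.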 Calls of active or inactive are those of the source. Cut-off read from the data, not from the text of the source: active = GI50 up to about 1.1 µM and inactive = higher.

Experiments:
Assay in all cases: inhibition of tumour cell growth, NCI panel, 48 h
SK-MEL-5 = tested on: SK-MEL-5
M14 = tested on: M14
SN12C = tested on: SN12C
HCT-116 = tested on: HCT-116
OVCAR-3 = tested on: OVCAR-3
K562 = tested on: K562
HCC 2998 = tested on: HCC 2998
CCRF-CEM = tested on: CCRF-CEM
A549 = tested on: A549
UACC-62 = tested on: UACC-62
SK-OV-3 = tested on: SK-OV-3
HOP-92 = tested on: HOP-92
RXF 393 = tested on: RXF 393
786-0 = tested on: 786-0
IGROV-1 = tested on: IGROV-1
COLO 205 = tested on: COLO 205
NCI-H226 = tested on: NCI-H226
MDA-N = tested on: MDA-N
MDA-MB-231 = tested on: MDA-MB-231
MDA-MB-435 = tested on: MDA-MB-435

Measured: GI50

CCOC(=O)C(=Cc1cc(OC)ccc1OC)C(=O)OCC
inactive: SK-MEL-5 4.16 µM | M14 11.6 µM | SN12C 5.27 µM | HCT-116 14.4 µM | OVCAR-3 10.7 µM | K562 3.42 µM | HCC 2998 20 µM | CCRF-CEM 2.95 µM | A549 6.3 µM | UACC-62 1.83 µM | SK-OV-3 15.8 µM | HOP-92 3.2 µM | RXF 393 1.83 µM | 786-0 3.56 µM | IGROV-1 23.8 µM | COLO 205 4.88 µM | NCI-H226 10.6 µM

COc1cc(/C=N/N=C(\N)NO)cc(Cl)c1O
inactive: SK-MEL-5 33.4 µM | M14 33.4 µM | SN12C 48.8 µM | HCT-116 55.7 µM | OVCAR-3 70.3 µM | K562 53.2 µM | HCC 2998 45.3 µM | CCRF-CEM 38.1 µM | A549 41.8 µM | UACC-62 42.4 µM | SK-OV-3 55.8 µM | HOP-92 57.8 µM | RXF 393 11.5 µM | 786-0 43.7 µM | IGROV-1 69.7 µM | COLO 205 > 100 µM | NCI-H226 22.8 µM

COc1cc(OC)c(C2c3cc4c(cc3OC(N3CCCC3)C2C)OCO4)c(OC)c1 (stereo not given)
inactive: SK-MEL-5 13.8 µM | M14 12.2 µM | MDA-N 15 µM | SN12C 15.3 µM | HCT-116 3.98 µM | OVCAR-3 4.26 µM | K562 19.7 µM | HCC 2998 10.1 µM | CCRF-CEM 15.2 µM | A549 19.7 µM | UACC-62 16.6 µM | 786-0 15.9 µM | IGROV-1 13.5 µM | COLO 205 > 10 µM

CN(CCO)c1nc2c(c(=O)[nH]1)CNCC2
inactive: SK-MEL-5 > 100 µM | M14 > 100 µM | SN12C > 100 µM | HCT-116 > 100 µM | OVCAR-3 > 100 µM | K562 > 100 µM | HCC 2998 > 100 µM | CCRF-CEM > 100 µM | A549 > 100 µM | UACC-62 > 100 µM | SK-OV-3 > 100 µM | HOP-92 > 100 µM | RXF 393 > 100 µM | 786-0 > 100 µM | IGROV-1 > 100 µM | COLO 205 > 100 µM | NCI-H226 > 100 µM

CCOC(=O)c1cc(C2CCN(Cc3ccccc3)C2=O)c(C(=O)C(=[N+]=[N-])C(C)=O)[nH]1 (stereo not given)
inactive: SK-MEL-5 > 100 µM | M14 > 100 µM | SN12C > 100 µM | HCT-116 > 100 µM | OVCAR-3 > 100 µM | K562 > 100 µM | HCC 2998 > 100 µM | CCRF-CEM > 100 µM | A549 > 100 µM | UACC-62 > 100 µM | SK-OV-3 > 100 µM | MDA-MB-231 > 100 µM | HOP-92 > 100 µM | RXF 393 > 100 µM | 786-0 > 100 µM | IGROV-1 > 100 µM | MDA-MB-435 > 100 µM | COLO 205 > 100 µM | NCI-H226 > 100 µM

CN1CCN(c2ccc3nc(C4=C(O)C(=O)[C@@H]5C(=C4O)N=C(CO)N5C)[nH]c3n2)CC1
inactive: M14 > 100 µM | SN12C > 100 µM | HCT-116 94.2 µM | OVCAR-3 91 µM | K562 24 µM | HCC 2998 68.4 µM | CCRF-CEM 97.5 µM | A549 > 100 µM | UACC-62 33.3 µM | SK-OV-3 > 100 µM | MDA-MB-231 62.5 µM | HOP-92 55 µM | RXF 393 > 100 µM | 786-0 > 100 µM | IGROV-1 > 100 µM | MDA-MB-435 93.8 µM | COLO 205 80.5 µM | NCI-H226 > 100 µM

N/C(S)=N/N=C/c1cc(CN2CCOCC2)c(N)cn1
inactive: SK-MEL-5 35.2 µM | M14 18.7 µM | MDA-N 56.1 µM | SN12C 62.4 µM | HCT-116 61.8 µM | OVCAR-3 27.7 µM | K562 89.5 µM | CCRF-CEM 40.1 µM | UACC-62 42.4 µM | SK-OV-3 53 µM | MDA-MB-231 48.1 µM | RXF 393 > 100 µM | 786-0 65.2 µM | IGROV-1 50.5 µM | MDA-MB-435 70.3 µM | COLO 205 26.8 µM | NCI-H226 12.7 µM

O[C@H]1[C@H]2[C@H](O)CCCN2C[C@H]1O [TRIDOLGOSIR]
inactive: SK-MEL-5 > 100 µM | M14 > 100 µM | SN12C > 100 µM | HCT-116 > 100 µM | OVCAR-3 > 100 µM | HCC 2998 > 100 µM | CCRF-CEM 85.3 µM | A549 > 100 µM | UACC-62 > 100 µM | SK-OV-3 > 100 µM | HOP-92 > 100 µM | RXF 393 > 100 µM | 786-0 > 100 µM | IGROV-1 > 100 µM | COLO 205 > 100 µM | NCI-H226 > 100 µM
